PMC10294390 (BMC Complementary Medicine and Therapies, 2023)
Blank lines part the entries; values can stand above or below the compound they belong to.

Legend:
[1] = test system: SW1116 human colon cancer cell line; assay: MTT assay, single and schedule-dependent combined treatment; format: cell-based; conditions: Homo sapiens, SW 1116, PPC alone, MTT, Fig. 1B
Method: (§1) The plates were washed, and PPCs [Cur, Kmf, or Que (60 or 120 µM), or Rsv (40 or 80 µM)] were added, followed by incubation at 37 °C for 48 h. For inverted sequential treatment, PPC [Cur, Kmf, or Que (60 or 120 µM), or Rsv (40 or 80 µM)] was added and incubated at 37 °C for 24 h. […] Cell growth was monitored as previously described.

[2] = test system: SW837 human rectum cancer cell line; assay: as above; format: cell-based; conditions: PPC alone, MTT, Fig. 1C; for IC50: Homo sapiens, SW837, SW837, read-out: IC50; for cytotoxicity mean: SW837
Method: as §1

[3] = test system: CRL1554 normal human fibroblast cells; assay: MTT assay, cytotoxicity of PPCs on normal fibroblasts; conditions: PPCs 20-160 µM, 72 h
Method: The cytotoxicity of a panel of 14 PPCs (Kmf, Cur, Que, Rsv, HHG, Hsp, BetA, IC3, Cmr, Sul, Irt, Lyc, Sil, and Snn) on CRL1554 normal human fibroblast cells was determined using the MTT assay [16]. CRL1554 cells were seeded (27 × 10^3 cells/well) into 96-well flat-bottomed plates and incubated at 37 °C for 18 h. Subsequently, the medium was removed, and the cells were washed with Hanks balanced salt solution (HBSS; 100 µl/well), and treated with various concentrations of PPCs (20, 40, 60, 80, 100, 120, 140 and 160 µM) for 72 h. The cells were then washed twice with HBSS, and 100 μl medium with 20 µl (5 mg/ml) MTT solution in PBS was added to each well and incubated at 37 °C for 4 h. The supernatants were aspirated, and 200 μL of dimethyl sulfoxide (DMSO) was added to dissolve the formazan crystals. Finally, the absorbance was measured using a multiwell spectrophotometer at two wavelengths (λ, 492 and 570 nm).

[4] = test system: SW837 cells; assay: Cell cycle analysis by flow cytometry (PI); format: cell-based, human; conditions: 72 h
Method: (§2) The cells were subsequently processed using a DNA-prep kit and DNA-Prep EPICS workstation. The cells were treated with a non-ionic detergent to permeabilize the cell membrane, followed by propidium iodide (PI) and RNase, and incubated at 15–20 °C for 15 min. The cells were resuspended in binding buffer at a concentration of 3–10 × 10^6 cells/ml for optimal staining. Fluorescence was measured using a flow cytometer (Beckman Coulter, Inc.), and the percentage of cells in the different phases of the cell cycle was calculated using the Phoenix statistical software package, Advanced DNA cell cycle software (Phoenix Flow System).

[5] = test system: SW837 cells; assay: Annexin V-FITC/PI double staining, flow cytometry; format: cell-based, human; conditions: SW837, 72 h
Method: (§3) The levels of cell surface phosphatidylserine were determined to monitor the type of cell death and the kinetics of apoptosis. The CRC cell lines SW1116 and SW837 were seeded (2.5 × 10^5 cells/well) into 24-well plates and incubated in a non-CO2 incubator at 37 °C for 18 h. […] The cells were subsequently washed twice with HBSS and harvested using trypsin. Finally, the cells were double-stained using the Annexin V-FITC-Flous staining kit, according to the manufacturer’s instructions (Roche Diagnostic GmbH). Annexin V-Flous labelling solution containing Annexin V-FITC and PI (100 µl) was added to both the treated and control cell groups and incubated at 15–20 °C for 15 min. The cells (1 × 10^6 cells/ml) were then resuspended in binding buffer, and fluorescence was monitored using flow cytometry (FC500; Beckman Coulter, Inc.).

[6] = test system: SW837 cells; assay: DNA fragmentation assay; format: cell-based, human; conditions: Sora 5 µM, PPC 200 and 400 µM, sequential combinations, 72 h, Fig. 8B, D
Method: (§4) Induction of apoptosis was monitored using a DNA fragmentation assay following the manufacturer’s instructions (Apoptotic DNA Ladder Detection kit; Abcam). […] Cells were subsequently incubated at 37 °C for 72 h. The cells were then trypsinized, harvested, washed, pelleted, and lysed using Tris–EDTA (TE) lysis buffer (35 µl). Enzyme A solution (RNase; 5 µl) was added, followed by incubation at 37 °C for 10 min. Enzyme B solution (proteinase; 5 µl) was then added, followed by incubation at 50 °C for 30 min. Ammonium acetate solution (5 µl) and isopropanol (50 µl) were added to each sample and incubated at -20 °C for 10 min. Finally, the DNA was pelleted, washed with 0.5 ml 70% methanol, and dissolved in 30 µl DNA suspension buffer. The extracted DNA samples were loaded onto a 1.2% agarose gel, along with a loading marker (1 kb DNA ladder), and subjected to electrophoresis, using a running buffer containing 1.35 µg/ml ethidium bromide at 5 V/cm for 1 h. Ethidium bromide-stained DNA bands were visualized using transillumination with UV light.

[7] = test system: DLD-1 colon tumor model; set-up: method as in PMID 14692718; conditions: cited from earlier work
[8] = test system: SW1116 cells; assay: Cell cycle analysis by flow cytometry (PI); format: cell-based, human; conditions: 72 h
Method: as §2

[9] = test system: SW1116 cells; assay: Annexin V-FITC/PI double staining, flow cytometry; format: cell-based, human; conditions: SW1116, 72 h
Method: as §3

[10] = test system: SW1116 cells; assay: DNA fragmentation assay; format: cell-based, human; conditions: Sora 5 µM, PPC 200 and 400 µM, simultaneous combinations, 72 h, Fig. 8A, C
Method: as §4

[11] = test system: SW1116 and SW837 cells; assay: Mitochondrial membrane potential (MMP) analysis, MitoNIR dye, flow cytometry; format: cell-based, human; conditions: Cur 400 µM alone; 72 h; cell line not stated
Method: The inner mitochondrial membrane is rich in negatively charged glycoproteins and is therefore negatively charged. The accumulation of high concentrations of protons outside of the inner membrane establishes the transmembrane potential. The MMP was monitored using the NIR Mitochondrial Membrane Potential Assay kit (Abcam) according to the manufacturer’s protocol. Briefly, cells (2.5 × 10^5 cells/well) were seeded into 24-well plates and incubated in a non-CO2 incubator at 37 °C for 18 h. […] MitoNIR Dye (200X; 5 µl/ml) was added to each sample, followed by incubation at 37 °C for 15–30 min. The cells were subsequently pelleted and resuspended in 1 ml assay buffer. Flow cytometry, in the FL4 channel (λExcitation/λEmission, 635/660 nm), was used to monitor the fluorescence intensity.

IC50 [1]: 70 µM | IC50 [2]: 140 µM
Structure (SMILES): Oc1ccc(/C=C/c2cc(O)cc(O)c2)cc1 [Rsv, resveratrol]
cytotoxicity [3]: 0.0–3.3% | cytotoxicity ([3]; listed as resveratrol): ≤ 20%

Structure (SMILES): CC(C)=CCC/C(C)=C/C=C/C(C)=C/C=C/C(C)=C/C=C/C=C(C)/C=C/C=C(C)/C=C/C=C(\C)CCC=C(C)C [Lyp, lycopene]
cytotoxicity [3]: 39.7–66.6%

IC50 [1]: 100 µM
Structure (SMILES): O=c1c(O)c(-c2ccc(O)cc2)oc2cc(O)cc(O)c12 [Kmf, kaempferol]
cytotoxicity mean [2]: 21 ± 3.5% | %G0/G1 (cells in G0/G1 phase) ([4]; PPC 200 µM alone): 60.4% | %G2/M (cells in G2/M phase) ([4]; PPC 200 µM alone): 5.9% | %S (cells in S phase) ([4]; PPC 200 µM alone): 33.6% | %SubG1 (cells in sub G1) ([4]; PPC 200 µM alone): 1.3% | %G0/G1 (cells in G0/G1 phase) ([4]; PPC 400 µM alone): 59.9% | %G2/M (cells in G2/M phase) ([4]; PPC 400 µM alone): 6.3% | %S (cells in S phase) ([4]; PPC 400 µM alone): 33.6% | %SubG1 (cells in sub G1) ([4]; PPC 400 µM alone): 2.7% | B1, percentage of necrotic cells ([5]; PPC 200 µM alone): 4.9% | B2, percentage of late apoptotic cells ([5]; PPC 200 µM alone): 20.5% | B4, percentage of early apoptotic cells ([5]; PPC 200 µM alone): 2.5% | B1, percentage of necrotic cells ([5]; PPC 400 µM alone): 36.8% | B2, percentage of late apoptotic cells ([5]; PPC 400 µM alone): 44.4% | B4, percentage of early apoptotic cells ([5]; PPC 400 µM alone): 2.8% | DNA fragmentation [6]: increased levels of DNA fragmentation | cytotoxicity [3]: 0.0–1.1% | cytotoxicity ([3]; listed as kaempferol): ≤ 20%

Structure (SMILES): C=C(C)[C@@H]1CC[C@]2(C(=O)O)CC[C@]3(C)[C@H](CC[C@@H]4[C@@]5(C)CC[C@H](O)C(C)(C)[C@@H]5CC[C@]43C)[C@@H]12 [BetA, betulinic acid]
cytotoxicity [3]: 69–97.5%

Structure (SMILES): COC(=O)C[C@](O)(CCCC(C)(C)O)C(=O)O[C@@H]1C(OC)=C[C@]23CCCN2CCc2cc4c(cc2[C@H]13)OCO4 [HHG, homoharringtonine]
cytotoxicity [3]: 99–100%

Structure (SMILES): CCc1c2c(nc3ccc(OC(=O)N4CCC(N5CCCCC5)CC4)cc13)-c1cc3c(c(=O)n1C2)COC(=O)[C@]3(O)CC [Irt, irinotecan]
delay of tumor cell growth [7]: 71% | cytotoxicity [3]: 44.9–81.9%

Structure (SMILES): O=c1ccc2ccccc2o1 [Cmr, coumarin]
cytotoxicity [3]: 7.4–11.34%

IC50 [1]: 160 µM
Structure (SMILES): O=c1c(O)c(-c2ccc(O)c(O)c2)oc2cc(O)cc(O)c12 [Que, quercetin]
cytotoxicity mean [2]: 19 ± 3% | %G0/G1 (cells in G0/G1 phase) ([8]; PPC 200 µM alone): 39.6% | %G2/M (cells in G2/M phase) ([8]; PPC 200 µM alone): 15.0% | %S (cells in S phase) ([8]; PPC 200 µM alone): 45.0% | %G0/G1 (cells in G0/G1 phase) ([8]; PPC 400 µM alone): 38.5% | %G2/M (cells in G2/M phase) ([8]; PPC 400 µM alone): 14.1% | %S (cells in S phase) ([8]; PPC 400 µM alone): 47.2% | %SubG1 (cells in sub G1) ([8]; PPC 400 µM alone): 8.4% | B1, percentage of necrotic cells ([9]; PPC 200 µM alone): 4.5% | B2, percentage of late apoptotic cells ([9]; PPC 200 µM alone): 24.5% | B4, percentage of early apoptotic cells ([9]; PPC 200 µM alone): 4.2% | B1, percentage of necrotic cells ([9]; PPC 400 µM alone): 31.1% | B2, percentage of late apoptotic cells ([9]; PPC 400 µM alone): 34.1% | B4, percentage of early apoptotic cells ([9]; PPC 400 µM alone): 0.8% | induction of apoptosis as indicated by DNA fragmentation [10]: marked induction of apoptosis | cytotoxicity [3]: 0.0–16.2% | cytotoxicity ([3]; listed as quercetin): ≤ 20%

Structure (SMILES): COc1ccc([C@@H]2CC(=O)c3c(O)cc(O)cc3O2)cc1O [Hsp, hesperetin]
cytotoxicity [3]: 0.0–4.4%

Structure (SMILES): CC1=C(CC(=O)O)c2cc(F)ccc2/C1=C\c1ccc([S+](C)[O-])cc1 (stereo not shown) [Sul, sulanidac]
cytotoxicity [3]: 38.94–98%

Structure (SMILES): COc1cc(C2Oc3cc([C@H]4Oc5cc(O)cc(O)c5C(=O)[C@@H]4O)ccc3OC2CO)ccc1O (stereo partly shown) [Sin, silibinin]
cytotoxicity [3]: 0.0–5.54%

Structure (SMILES): OCc1c[nH]c2ccccc12 [I3C, indol-3-carbinol]
cytotoxicity [3]: 0.2–9.2%

IC50 [1]: 60 µM | IC50 [2]: 150 µM
Structure (SMILES): COc1cc(/C=C/C(=O)CC(=O)/C=C/c2ccc(O)c(OC)c2)ccc1O [Cur, curcumin]
%G0/G1 (cells in G0/G1 phase) ([8]; PPC 200 µM alone): 49.1% | %G2/M (cells in G2/M phase) ([8]; PPC 200 µM alone): 13.6% | %S (cells in S phase) ([8]; PPC 200 µM alone): 37.1% | %G0/G1 (cells in G0/G1 phase) ([8]; PPC 400 µM alone): 28.5% | %G2/M (cells in G2/M phase) ([8]; PPC 400 µM alone): 11.3% | %S (cells in S phase) ([8]; PPC 400 µM alone): 60% | %SubG1 (cells in sub G1) ([8]; PPC 400 µM alone): 12% | %G0/G1 (cells in G0/G1 phase) ([4]; PPC 200 µM alone): 49.1% | %G2/M (cells in G2/M phase) ([4]; PPC 200 µM alone): 6.2% | %S (cells in S phase) ([4]; PPC 200 µM alone): 44.6% | %SubG1 (cells in sub G1) ([4]; PPC 200 µM alone): 14.7% | %G0/G1 (cells in G0/G1 phase) ([4]; PPC 400 µM alone): 58.1% | %G2/M (cells in G2/M phase) ([4]; PPC 400 µM alone): 2.4% | %S (cells in S phase) ([4]; PPC 400 µM alone): 39.4% | %SubG1 (cells in sub G1) ([4]; PPC 400 µM alone): 2.9% | B1, percentage of necrotic cells ([9]; PPC 200 µM alone): 5.9% | B2, percentage of late apoptotic cells ([9]; PPC 200 µM alone): 11.5% | B4, percentage of early apoptotic cells ([9]; PPC 200 µM alone): 4.6% | B1, percentage of necrotic cells ([9]; PPC 400 µM alone): 18.2% | B2, percentage of late apoptotic cells ([9]; PPC 400 µM alone): 35.2% | B4, percentage of early apoptotic cells ([9]; PPC 400 µM alone): 3.8% | B1, percentage of necrotic cells ([5]; PPC 200 µM alone): 60.9% | B2, percentage of late apoptotic cells ([5]; PPC 200 µM alone): 26.6% | B4, percentage of early apoptotic cells ([5]; PPC 200 µM alone): 0.3% | B1, percentage of necrotic cells ([5]; PPC 400 µM alone): 67.9% | B2, percentage of late apoptotic cells ([5]; PPC 400 µM alone): 32.3% | B4, percentage of early apoptotic cells ([5]; PPC 400 µM alone): 0.0% | induction of apoptosis as indicated by DNA fragmentation [10]: marked induction of apoptosis | DNA fragmentation [6]: increased levels of DNA fragmentation | change in MMP (shift of MitoNIR red fluorescence) [11]: no change in MMP | cytotoxicity [3]: 0.0% | cytotoxicity ([3]; listed as curcumin): ≤ 20%
